From paper PMC11111404, “Discovery of potent small-molecule inhibitors of lipoprotein(a) formation” (Nature, 2024)
Where “and” joins values, the source holds several entries; their conditions need not be identical. Equal values may be shown once. Read-outs that look alike come from different tables or passages of the source.

Key:
[1] = test system: Lp(a); assay: Lp(a) levels in cynomolgus monkeys; format: in vivo, cynomolgus monkey (Macaca fascicularis); set-up: key to Mean_pCFB_vs_Veh / Mean_pCFB_vs_Veh (Lp(a)): % change from pre-dose, treated group compared with vehicle; key to Mean_pCFB / Mean_pCFB (Lp(a)): % change in Lp(a) from before dosing; Lp(a): unit not given here; settings: for Lp(a): Fig 3b raw data; for Mean_pCFB / Mean_pCFB_vs_Veh: Lp(a), female cynomolgus monkeys; for maximum decrease of median Lp(a) levels / %Lp(a) max decrease (dose, mg/kg): cynomolgus monkeys; for maximum decrease of median Lp(a) levels: after 5 days; for %Lp(a) max decrease (dose, mg/kg): 14 days dosing
Procedure: Female or male Chinese Macaca fascicularis cynomolgus monkeys (as described in the figure legends) of unspecified ages with body weight ranging from 2.0 kg to 5.0 kg were housed in cages with a standard light cycle (12-h light, 12-h dark) at room temperature (20–26 °C); the relative humidity ranged from 30% to 70%. Monkeys were given fruits, vegetables or dietary enrichment as a form of environmental enrichment, and various cage enrichment devices. Purina Lab diet 5048C was provided BID and individual monkeys were identified by cage card. The monkeys were randomized to treatment groups by body weight and baseline plasma Lp(a) concentration, as determined by a commercially available Randox assay (Randox LP2757), using a BRAT for the study. In an example cynomolgus monkey study in which 39 monkeys were prescreened for baseline Lp(a) levels, the average Lp(a) level was 350 ± 57 µg ml^−1 (range 53–1,667 µg ml^−1). Monkeys were dosed orally with vehicle (purified water) or compounds QD or BID for 14 days, at dose levels and frequencies as previously described for each compound. Plasma samples were collected on days before dosing to establish baseline Lp(a) and after the morning dose during the study. Lp(a) levels were measured by an investigator who was blinded to group allocation using the Randox assay, and were quantified relative to the calibrator series (Randox LP3404). Data were analysed in GraphPad Prism v.9.5.1. The Lp(a) percentage change from before dosing in non-human primates was analysed by repeated measures ANOVA in SAS v.9.4 (SAS). At each time point, the Lp(a) percentage change for each treated group was compared with vehicle by the Bonferroni method.

[2] = Drug concentration in mouse blood after oral dosing; format: in vivo; settings: female, whole blood (dried blood spots), day 5, read-out: Drug concentration, 4-h time point
Procedure: The LPA gene (GenBank accession code NM_005577) encoding the human apo(a) protein with a signal peptide, one KIV type 1, six KIV type 2 repeats, one each of KIV types 3–10, one KV and one protease domain was subcloned into a transgenic vector containing a mouse albumin promoter cassette and a human growth hormone polyadenylation signal. The transgenic mouse line was generated by pronucleus injection of the LPA transgenic vector. Eight individual transgenic founder mice were assessed for germline transmission of LPA by genotyping and assessment of the levels of apo(a) in the plasma. Positive founder mice were crossed with ApoB100 transgenic mice (Taconic model 1004), and the resulting mouse line nomenclature (B6.SJL-Tg(APOB)1102Sgy Tg(Alb-LPA)32Arte) was selected on the basis of the confirmation of germline transmission, the identification of LPA and huApoB100 transgenes and the levels of Lp(a) in the plasma. Mice hemizygous for both transgenes were used for pharmacology studies. The studies were conducted in female Lp(a) double transgenic mice (age around 7–17 months). Mice were housed in cages with a standard light cycle (12-h light, 12-h dark), at room temperature (22 ± 4 °C), with a relative humidity of 30–70%. Mice were identified by numbers on the cage cards. After arrival, mice were fed on a normal diet (Harlan Teklad diet 2014). Mice were randomized to treatment groups (n = 5 per group, unless otherwise noted) by body weight and baseline plasma Lp(a) concentration using a block randomized allocation tool (BRAT) for the study. In an example Lp(a) transgenic mouse study in which 66 mice were prescreened for baseline Lp(a) levels, the average Lp(a) level was 45 ± 1.8 µg ml^−1 (range 20–78 µg ml^−1). Mice were dosed with various compounds in vehicle (10 ml kg^−1, 1% hydroxyethyl cellulose (HEC), 0.25% Tween-80, Antifoam) or with vehicle alone as a control orally BID for five days. Blood samples were collected by tail bleeds at designated times, and Lp(a) levels were determined by ELISA by an investigator who was blinded to group allocation. In brief, lipoprotein particles were captured by a goat anti-Lp(a)-antibody-coated plate (Abcam ab31675, diluted 1:12,500 in HEPES-buffered saline), the plates were washed and samples were detected using an HRP-conjugated goat anti-apoB antibody (Abcam ab27622, diluted 1:3,000). Colorimetric peroxidase substrate 3,3’,5,5’-TMB was added, and the reaction was stopped using 1 N sulfuric acid. Absorbance at 450 nm was read on a Molecular Devices SpectraMax plate reader. Blood samples were collected at four hours after dosing on day 5 of dosing to confirm exposure. Full pharmacokinetic (PK) profiles were not evaluated. Concentrations of compounds were evaluated from dried blood spots through a non-Good Laboratory Practice (GLP) liquid chromatography with tandem mass spectrometry (LC–MS/MS) assay. Data were analysed in GraphPad Prism v.9.5.1

[3] = 2mpk BID, Day 1, individual cynos
[4] = 2mpk BID, Day 3, individual cynos
[5] = 2mpk BID, Day 5, individual cynos
[6] = 2mpk BID, Day 9, individual cynos
[7] = 2mpk BID, Day 14, individual cynos
[8] = 10mpk BID, Day 1, individual cynos
[9] = 10mpk BID, Day 3, individual cynos
[10] = 10mpk BID, Day 5, individual cynos
[11] = 10mpk BID, Day 9, individual cynos
[12] = 10mpk BID, Day 14, individual cynos

concentration at 4 h ([2]; oral 1 mg/kg): 147 ± 126 nM | concentration at 4 h ([2]; oral 3 mg/kg): 432 ± 203 nM | concentration at 4 h ([2]; oral 10 mg/kg): 465 ± 167 nM | concentration at 4 h ([2]; oral 30 mg/kg): 625 ± 184 nM
SMILES: Cl.Cl.O=C(Nc1cccc(C[C@H](C(=O)O)[C@H]2CCNC2)c1)Nc1cccc(C[C@H](C(=O)O)[C@H]2CCNC2)c1 [LSN3441732]
pCFB (pct chng from baseline, Lp(a)) [1, 3]: -0.8715 pct and -9.178 pct and 9.115 pct and 2.958 pct and -14.9999 pct and -4.998 pct and -4.507 pct and 6.837 pct | Lp(a) [1, 3]: 66.699 and 27.339 and 53.349 and 76.924 | pCFB (pct chng from baseline, Lp(a)) [1, 4]: -26.3908 pct and -7.214 pct and -20.0294 pct and -41.4028 pct and -34.8821 pct and 12.2337 pct and -15.3593 pct and -16.4032 pct | Lp(a) [1, 4]: 59.119 and 21.392 and 39.615 and 78.588 | pCFB (pct chng from baseline, Lp(a)) [1, 5]: -60.4222 pct and -23.7562 pct and -53.193 pct and -73.9823 pct and -52.767 pct and 10.0362 pct and -38.056 pct and -25.4812 pct | Lp(a) [1, 5]: 43.266 and 19.069 and 21.3 and 64.577 | pCFB (pct chng from baseline, Lp(a)) [1, 6]: -46.3414 pct and -22.6794 pct and -48.3056 pct and -58.1644 pct and -48.9556 pct and 33.2038 pct and -34.8562 pct and -42.8477 pct | Lp(a) [1, 6]: 45.501 and 14.625 and 28.878 | pCFB (pct chng from baseline, Lp(a)) [1, 7]: -26.8256 pct and -20.2744 pct and -41.4618 pct and -48.6082 pct and -43.1214 pct and 61.8786 pct and -34.6787 pct and -24.6097 pct | Lp(a) [1, 7]: 24.162 and 45.625 and 19.292 and 39.381 | Lp(a) ([1]; 2mpk BID, Day -1 (pre-dose), individual cynos): 76.499 and 27.63 and 59.314 and 80.73 | Lp(a) ([1]; 2mpk BID, Day -14 (pre-dose), individual cynos): 63.195 and 23.549 and 48.322 and 88.666 | pCFB (pct chng from baseline, Lp(a)) [1, 8]: 6.085 pct and 18.5121 pct and 11.2235 pct and -12.4022 pct and 3.527 pct and -18.0886 pct and 0.3688 pct and -16.5769 pct | Lp(a) [1, 8]: 42.107 and 61.295 and 35.316 and 53.315 and 65.761 and 52.068 and 17.81 and 84.78 | pCFB (pct chng from baseline, Lp(a)) [1, 9]: -30.0594 pct and -45.1266 pct and -34.624 pct and -67.6349 pct and -34.8372 pct and -50.8715 pct and -17.9315 pct and -61.9012 pct | Lp(a) [1, 9]: 19.23 and 40.411 and 16.352 and 31.338 and 24.297 and 32.773 and 10.682 and 69.322 | pCFB (pct chng from baseline, Lp(a)) [1, 10]: -74.5889 pct and -41.8647 pct and -61.4356 pct and -52.9091 pct and -78.302 pct and -39.7105 pct and -69.6086 pct and -32.2067 pct | Lp(a) [1, 10]: 12.826 and 33.59 and 11.492 and 22.573 and 16.289 and 30.322 and 6.608 | pCFB (pct chng from baseline, Lp(a)) [1, 11]: -56.8372 pct and -40.6982 pct and -59.7007 pct and -36.5829 pct and -68.9989 pct and -34.2069 pct and -69.9581 pct and 8.689 pct | Lp(a) [1, 11]: 21.786 and 34.264 and 12.009 and 30.399 and 23.273 and 33.09 and 6.532 | pCFB (pct chng from baseline, Lp(a)) [1, 12]: -44.94 pct and -47.7665 pct and -60.9759 pct and -27.3662 pct and -62.6383 pct and -7.387 pct and -32.53 pct and -7.053 pct | Lp(a) [1, 12]: 27.791 and 30.18 and 11.629 and 34.817 and 28.048 and 46.579 and 14.67 | Lp(a) ([1]; 10mpk BID, Day -1 (pre-dose), individual cynos): 51.607 and 58.876 and 34.406 and 53.514 and 88.739 and 49.824 and 82.77 and 24.664 | Lp(a) ([1]; 10mpk BID, Day -14 (pre-dose), individual cynos): 49.341 and 56.682 and 25.193 and 42.356 and 61.404 and 86.167 and 50.764 and 18.822 | Mean_pCFB ([1]; 2mpk BID, day 1): -1.96 | Mean_pCFB_vs_Veh ([1]; 2mpk BID, day 1): -1.99 | Mean_pCFB ([1]; 2mpk BID, day 3): -18.68 | Mean_pCFB_vs_Veh ([1]; 2mpk BID, day 3): -8.97 | Mean_pCFB ([1]; 2mpk BID, day 5): -39.7 | Mean_pCFB_vs_Veh ([1]; 2mpk BID, day 5): -22.16 | Mean_pCFB ([1]; 2mpk BID, day 9): -33.62 | Mean_pCFB_vs_Veh ([1]; 2mpk BID, day 9): -19.16 | Mean_pCFB ([1]; 2mpk BID, day 14): -22.21 | Mean_pCFB_vs_Veh ([1]; 2mpk BID, day 14): -17.15 | Mean_pCFB ([1]; 10mpk BID, day 1): -0.92 | Mean_pCFB_vs_Veh ([1]; 10mpk BID, day 1): -0.95 | Mean_pCFB ([1]; 10mpk BID, day 3): -42.87 | Mean_pCFB_vs_Veh ([1]; 10mpk BID, day 3): -33.16 | Mean_pCFB ([1]; 10mpk BID, day 5): -56.33 | Mean_pCFB_vs_Veh ([1]; 10mpk BID, day 5): -38.79 | Mean_pCFB ([1]; 10mpk BID, day 9): -44.79 | Mean_pCFB_vs_Veh ([1]; 10mpk BID, day 9): -30.33 | Mean_pCFB ([1]; 10mpk BID, day 14): -36.33 | Mean_pCFB_vs_Veh ([1]; 10mpk BID, day 14): -31.27 | maximum decrease of median Lp(a) levels ([1]; 2 mg kg^−1 oral BID): 45% | %Lp(a) max decrease (dose, mg/kg) ([1]; 2 mg/kg BID): 40% | maximum decrease of median Lp(a) levels ([1]; 10 mg kg^−1 oral BID): 57% | %Lp(a) max decrease (dose, mg/kg) ([1]; 10 mg/kg BID): 56%
